The results in this text go back to patent US10316079B2, “Monoclonal antibody against muramyl peptides” (priority 2012, dated 2019).

Assay [1] has as its system binding of 2E7 to N-acetylmuramyl-L-alanyl-D-isoglutamine conjugated to OVA. The experiment in a line: Competitive ELISA for antigen specificity of 2E7. Further details: species or system mouse. Conditions: concentration dependent, compared with N-acetylmuramyl-L-alanyl-D-isoglutamine. The text has this:
To enhance the antigenicity of the MDPs, these molecules were conjugated to the human serum albumin (HSA) using a linker molecule. The carboxylic acid moiety of MDPs was first coupled to N-Boc-ethylenediamine, and then the Boc protection group was removed and the resulting amine was linked to HSA with glutaraldehyde. […] The MDP-HSA conjugates were then used to immunize BALB/c mice. Serum antigen-specific titers of the immunized mice were examined by enzyme-linked immunosorbent assay (ELISA) against MDPs conjugated to ovalbumin (OVA) using the same linkage strategy as described above. Generation of hybridoma cell lines, screening of antibody-producing clones, preparation and purification of mAbs, and mAb isotyping were carried out by following standard protocols. Antigen specificity of a mAb was determined using competitive ELISA to test the ability of different MDPs and constituent moieties to inhibit the binding of a mAb to the MDP originally used as antigen for immunization.

Assay [2] relates to Escherichia coli. The experiment in a line: MPs released into culture supernatant with amoxicillin, competitive ELISA using 2E7. It counts as cell-based. The settings on record: 40 μg per ml amoxicillin added at OD600=1.5; vs untreated culture. How it is done:
(§1) Power Fit equation y=a*(x−b)^c using CurveExpert Basic. The standard curve was used to determine the peptidoglycan to concentration in a sample. […] Both bacteria were grown to OD600=1.5. Each culture was divided into two, and one treated with 40 μg/ml amoxicillin (Atex) and the other untreated. Aliquots were collected at the indicated times and the amount of MPs in the supernatant was determined by competitive ELISA. […] After removing unbound antibodies by PBS washes, the cells were incubated with a FITC-labeled anti-mouse IgG Ab before fluorescence microscopic examination.
(§2) For this test, Gram-positive bacterium Staphylococcus aureus, which has a thick peptidoglycan layer, and […] Escherichia coli, which has a thin peptidoglycan layer, were selected and grown in the presence or absence of amoxicillin. The culture was grown to a density of OD600=1.5 and then divided into two equal aliquots. To one aliquot, amoxicillin was added to a final concentration of 40 μg per ml, and to the other aliquot, no drug was added. Both cultures were allowed to continue to grow. Aliquots of cultures were collected at timed intervals and cells were removed by centrifugation. The amount of MPs in the supernatant was determined by competitive ELISA using 2E7.

Assay [3] has as its system Staphylococcus aureus. The assay is described as above. The format is cell-based. Conditions: 40 μg per ml amoxicillin added at OD600=1.5; vs untreated culture. How it is done:
as §1, §2

The test system of assay [4] is bacteria of the mouse microbiota. The experiment in a line: Blood MP level in mice fed amoxicillin, competitive ELISA using 2E7. The format is in vivo. The settings on record: amoxicillin 100 mg/kg fed at 12-h intervals, 4 h after each feeding. How it is done:
Amoxicillin was administered orally to 50 mice at 12-h intervals and three mice were sacrificed every 4 h to collect blood for peptidoglycan quantification by ELISA. […] Serial blood samples were taken. Time for blood draw and IV injection are indicated.
The MP level in serum was determined by competitive ELISA using an example of the antibody of the present disclosure, i.e. 2E7.

On to `CC(NC(=O)C(C)OC1C(N)C(O)OC(CO)C1O)C(=O)NC(CCC(=O)O)C(=O)O` [muramyl-L-alanyl-D-glutamate], for which the “inhibition of 2E7 binding to N-acetylmuramyl-L-alanyl-D-isoglutamine conjugated to OVA” value in assay [1] was “almost as effectively as N-acetylmuramyl-L-alanyl-D-isoglutamine”.
The same measure, in the same setting: the result for muramyl-L-alanyl-D-isoglutamine reads “almost as effectively as N-acetylmuramyl-L-alanyl-D-isoglutamine”; that for `CC(=O)N[C@H]1C(O)O[C@H](CO)[C@@H](O)[C@@H]1O[C@H](C)C(=O)N[C@H](C)C(=O)N[C@H](CCC(=O)O)C(=O)O` (stereo partly drawn) [N-acetylmuramyl-L-alanyl-D-glutamate], “almost as effectively as N-acetylmuramyl-L-alanyl-D-isoglutamine”.
Consider `CC1(C)S[C@@H]2[C@H](NC(=O)[C@H](N)c3ccc(O)cc3)C(=O)N2[C@H]1C(=O)O` [amoxicillin], for which the “molecules in culture medium that inhibit 2E7 binding to N-acetylmuramyl-L-alanyl-D-isoglutamine (MPs)” value in assay [2] and in assay [3] was “sharp increase” in each case. Besides, the “increase in the blood MP level” value in assay [4] is recorded as 20-60%.
